According to PubChem BioAssay AID1902 (Broad Institute, 2009):
Active and inactive are the calls of the source.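 How the source made its calls: active means EC50 no more than a set limit of log units above the highest dose; inactive means the rest.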

Biological target: S. pyogenes SKKanGAS, kanamycin survival, BacTiterGlo, 6 h
Assay: S. pyogenes SKKanGAS kanamycin growth inhibitors – SKKanGAS strain, luminescence, dose confirmation, streptokinase promoter inhibitor project, dose response (AID 1902);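 further: lower survival reflects blocked streptokinase promoter driving kanamycin resistance gene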

Compound	EC50
Clc1ccc(-c2nnnn2-c2ccc(Cl)c(Cl)c2)cc1Cl	8.09 µM
Cc1ccc(C)c(S(=O)(=O)N2CCN(Cc3ccc(O)c4ncccc34)CC2)c1	2.8 µM
COc1ccc(-n2c(=S)[nH]c3cc(C(=O)Nc4ccc(C)c(F)c4)ccc3c2=O)c(OC)c1	2.84 µM
COc1ccc(C2=NOC(CNC(N)=S)C2)cc1 (stereo not given)	3.41 µM
Cc1ccc(Oc2ccc3c(c2)C(=O)N(c2cccc4cccnc24)C3=O)cc1	2.91 µM
Cc1ccc(C(=O)NNC2=Nc3cccc4cccc2c34)cc1	3.14 µM
Fc1ccc(-n2cc(-c3ccccc3)c3c(=S)nc[nH]c32)cc1	8.7 µM
O=C(Nc1cc([N+](=O)[O-])ccc1O)c1cccc(NC(=O)c2ccco2)c1	2.78 µM
O=C(Cn1nnc(-c2ccccc2)n1)N/N=C/c1cc([N+](=O)[O-])ccc1O	0.75 µM
CCOC(=O)c1sc2ncnc(NCC(c3cccs3)N(C)C)c2c1C (stereo not given)	7.95 µM
CC1(C)CC[C@]2(C(=O)O)CC[C@]3(C)C(=CCC4[C@@]5(C)CC[C@H](O)C(C)(C)C5CC[C@]43C)C2C1 (stereo not given in full)	2.69 µM
Cc1ccc(N(C)S(=O)(=O)c2cccc(C(=O)Nc3nc4ccccc4[nH]3)c2)cc1	1 µM
O=C(NC(=S)N1CCN(c2c(Cl)cccc2[N+](=O)[O-])CC1)c1cccs1	5.15 µM
Cc1cc2oc(=O)cc(CNc3ccccc3F)c2cc1O	10.2 µM
O=C(Cn1nc2ccccc2n1)N/N=C/c1cc([N+](=O)[O-])ccc1O	0.73 µM
Cc1nn(-c2ccccc2)c(Cl)c1/C=C1\SC(=S)N(CCCCCC(=O)O)C1=O	3.04 µM
Clc1cccc(Cl)c1C1Nc2cccc3cccc(c23)N1	8.81 µM
Cc1nn(-c2ccc(Cl)cc2)c(Cl)c1/C=N/NC(=O)c1ccc(NS(=O)(=O)c2cccs2)cc1	2.06 µM
C/C(N)=C(/C#N)C(=O)CSc1nc2scc(-c3ccccc3)c2c(=O)n1C	1.62 µM
COc1ccc(C(=O)NC(=S)NNC(=O)c2c(-c3ccccc3)noc2C)cc1OC	0.506 µM
O=C(NC(=S)NNC(=O)c1ccccc1O)c1ccco1	3.06 µM
O=C(O)CC/C(=C\c1cc2c(cc1Br)OCO2)c1nc2ccccc2s1	10.5 µM
COc1ccc(C(NC(C)=O)c2cc(Cl)c3cccnc3c2O)cc1OC (stereo not given)	5.2 µM
CC(C)(C)c1ccc(OCC(=O)N2CCN(c3ncccn3)CC2)cc1	> 15 µM (inactive)
COc1ccc(-c2noc(-c3ccccc3-c3ccccc3)n2)cc1	8.18 µM
CCCCCCN1N=C(C)C(C(=O)c2ccc(Cl)cc2)C1=O (stereo not given)	1.51 µM
CCCCC1CCC(c2nc(-c3ccccn3)no2)CC1 (stereo not given)	8.61 µM

Compound	EC50
Fc1ccc2nc(Nc3nc4cc5c(cc4s3)OCO5)sc2c1	2.63 µM
CCCCn1c(NS(=O)(=O)c2ccccc2)c(S(=O)(=O)c2ccc(C)cc2)c2nc3ccccc3nc21	3.43 µM
c1ccc(CN2CCN(c3nc4ccccc4c4ccccc34)CC2)cc1	5.26 µM
O=C(Cc1ccccc1)Nn1c(O)c(/C=C2\C=Nc3ccccc32)sc1=S	14.6 µM
CCCCCCCCCCOC(=O)Cn1c(COc2cccc(C)c2)[n+](C)c2ccccc21	2.83 µM
COc1cnc(-c2ccccn2)nc1Oc1ccc(C(C)(C)C)cc1	7.68 µM
CC1(C(=O)OCC(=O)Nc2nc(-c3ccc(F)c(F)c3)cs2)CC1(Cl)Cl (stereo not given)	6.72 µM
Cc1[nH]c2ccccc2c1/C=N/Nc1nc2ccccc2[nH]1	4.87 µM
O=C1C2C(c3ccccc3)=NN(c3ccccc3)C2C(=O)N1c1ccccc1 (stereo not given)	0.704 µM
CC[C@H]1OC(=O)[C@H](C)[C@@H](O[C@H]2C[C@@](C)(OC)[C@@H](O)[C@H](C)O2)[C@H](C)[C@@H](O[C@@H]2O[C@H](C)C[C@H](N(C)C)[C@H]2O)[C@](C)(OC)C[C@@H](C)C(=O)[C@H](C)[C@@H](O)[C@]1(C)O	< 0.06 µM
Cc1ccc(C)c2sc(N3CCN(C(=O)c4ccc([N+](=O)[O-])o4)CC3)nc12	5.58 µM
S=c1nc(SCc2ccccc2)[nH]c2ccccc12	3.19 µM
CC(=O)OCC1=C(C(=O)O)N2C(=O)C(NC(=O)C(C)Cn3cc(Cl)cn3)C2SC1 (stereo not given)	1.96 µM
O=C(O)CCCNc1cc(N2CCN(C(=O)c3ccco3)CC2)c2noc3c2c1C(=O)c1ccccc1-3	6.02 µM
CC(=O)Nc1nc(NC(=O)/C=C/c2ccccc2)n(-c2ccccc2)n1	1.74 µM
CC(C)Cn1c(=O)c(C(=O)N/N=C/c2cccc(F)c2)c(O)c2ccccc21	1.83 µM
COc1cccc(C(=O)N2C(C(=O)O)CSC2c2ccccc2Cl)c1 (stereo not given)	> 15 µM (inactive)
Cc1ccc(-c2cc(-c3ccccc3Cl)[nH]n2)c(O)c1	2.19 µM
COc1ccc(C)cc1N=Nc1ccc(O)c2ncccc12	0.168 µM
O=[N+]([O-])c1cc(Cl)c(O)c2ncccc12	0.782 µM
CCOc1cc(-c2cc(-c3ccc(NC(C)=O)cc3)nc(N)c2C#N)ccc1O	0.919 µM
NNc1nc(Nc2ccccc2)nc(Nc2ccccc2)n1	4.04 µM
Oc1c(CN2CCN(c3ccc(F)cc3)CC2)cc(Cl)c2cccnc12	1.01 µM
O=C(Nc1nnc(SCc2ccccc2Cl)s1)C1COc2ccccc2O1 (stereo not given)	7.21 µM
CCCOc1ccc(C2C(C(=O)c3cc4ccccc4o3)=C(O)C(=O)N2c2cc(C)on2)cc1OC (stereo not given)	1.98 µM
Cc1ccc(/C=C2/Sc3ccc(C(=O)N4CCN(C)CC4)cc3NC2=O)cc1	13.4 µM
CN(C(=S)NC(=O)c1ccccc1)C1CCCCC1	> 15 µM (inactive)

Compound	EC50
O=C(CNC(=O)c1ccc2c(c1)OCO2)N/N=C/c1cc(Br)ccc1O	2.38 µM
OC(COCC(F)(F)C(F)(F)C(F)(F)C(F)F)Cn1c2ccc(Cl)cc2c2cc(Cl)ccc21 (stereo not given)	2.16 µM
NC(=S)N=Nc1ccc(NN=C(N)N)cc1	< 0.06 µM
Cc1ccc(-c2cc(C(=O)Nc3ccc(S(=O)(=O)Nc4cc(C)on4)cc3)c3ccccc3n2)c(C)c1	5.67 µM
Cc1ccc(C[n+]2c(-c3ccc(C)cc3)cc(-c3ccc(C)cc3)cc2-c2ccc(C)cc2)cc1	4.06 µM
COc1ccccc1-n1c(SCC(=O)Nc2ccc(Br)cc2)nc(O)cc1=O	10.3 µM
Cn1c(SCC(=O)Nc2cccc3ccccc23)nc(O)cc1=O	> 15 µM (inactive)
COc1ccc(-c2nn(-c3ccccc3)cc2/C=C2/SC(=S)N(CCC(=O)O)C2=O)cc1	1.83 µM
C=CCc1cc(/C=C2/NC(=O)N(CC)C2=O)cc(OCC)c1OCc1ccc(C(=O)O)cc1	11.9 µM
Cc1cccc(OCC(=O)Nc2ccncc2)c1	> 15 µM (inactive)
C=CCn1c(O)c(C(CC)=Nc2ccc(N(CC)CC)cc2)c(=O)[nH]c1=O	1.66 µM
O=C(Nc1nnc(-c2ccccc2Cl)o1)c1ccc(S(=O)(=O)N2CCCCCC2)cc1	0.264 µM
Cc1cc(/C=C2\SC(=S)N(C)C2=O)c(C)n1-c1ccccc1O	6.72 µM
O=S(=O)(Cc1cc(NCc2ccccc2)nc(-c2ccccn2)n1)c1ccccc1	0.808 µM
Cn1c(=O)c(C(=O)NNC(=O)c2ccccc2F)c(O)c2ccccc21	4.25 µM
COc1cc(/C=C/C(=O)OCC(=O)c2c(N)n(C)c(=O)n(C)c2=O)ccc1OCC#N	5.45 µM
CCc1oc2ccccc2c1C(=O)c1cc(Br)c(O)c(Br)c1	6.55 µM
CN(CC1CCCO1)S(=O)(=O)c1ccc(C(=O)Nc2ccc(F)cc2)cc1 (stereo not given)	> 15 µM (inactive)
COc1ccc(-c2nc(NC(=O)C3CC(=O)N(c4ccc5c(c4)OCCO5)C3)sc2C)cc1 (stereo not given)	12 µM
O=C(N/N=C/c1cccc(F)c1)c1c(O)c2ccccc2[nH]c1=O	2.54 µM
Clc1ccccc1Sc1ccc(-c2ccccn2)s1	5.48 µM
CC(C)Cn1c(=O)c(C(=O)Nc2ccncc2)c(O)c2ccccc21	4.17 µM
Cc1cc(N2C(=O)C(O)=C(C(=O)c3cc4ccccc4o3)C2c2cccc(Cl)c2)no1 (stereo not given)	1.33 µM
COc1ccc(-c2cn[nH]c2-c2ccc(OC)cc2)cc1	6.64 µM
O=[N+]([O-])c1ccc(Nc2nc(NCCO)nc(N3CCCC3)n2)cc1	5.91 µM
COc1ccccc1C(=O)NNC(=O)C(=O)Nc1ccc(C)c(Cl)c1	1.65 µM
O=C1CN(/N=C/c2ccc([N+](=O)[O-])o2)C(=O)N1	5.83 µM

Compound	EC50
Nc1nonc1-c1nc2ccccc2n1CC(=O)N/N=C/c1ccc(-c2cccc(C(=O)O)c2)o1	3.02 µM
Clc1ccc2nc(-c3ccccn3)c(Nc3ccc4c(c3)OCO4)n2c1	6.99 µM
C=C(C)CNC(=S)NNC(=O)CCn1c2ccc(Cl)cc2c2cc(Cl)ccc21	2.31 µM
COc1ccc(NP(=O)(Oc2ccc(Cl)cc2)Oc2ccc(Cl)cc2)cc1OC	7.25 µM
CCOc1cccc(/C=N/NC(=O)c2ccc3c(c2)OCCO3)c1O	1.27 µM
COC(=O)CSc1nnc(-c2cnccn2)n1C	> 15 µM (inactive)
Cc1cccc(CSc2nc(N)c(C#N)c(-c3cccs3)c2C#N)c1	4.77 µM
COc1ccc(O)c(/C=N/Nc2nc(Nc3ccccc3)nc(-n3nc(C)cc3C)n2)c1	0.868 µM
O=[N+]([O-])c1cccnc1N1CCC(c2cc(-c3ccc(Cl)cc3Cl)n[nH]2)CC1	1.24 µM
CCOC(=O)/C(=N\Nc1ccc(Cl)cc1)c1csc(Nc2ccccc2)n1	1.77 µM
COc1cccc(Nc2c3c(nc4c(-c5ccccc5)c(C)nn24)CCC3)c1	1.8 µM
CCCOc1ccc(/C=C/c2c([N+](=O)[O-])c(=O)n(C)c(=O)n2C)cc1	7.11 µM
COc1ccc(N2CCN(C(=S)NC(=O)c3cccs3)CC2)c([N+](=O)[O-])c1	6.21 µM
O=C(Nc1ccc(N2CCCC2)c(S(=O)(=O)Nc2cccc(C(F)(F)F)c2)c1)c1cccs1	3.95 µM
COc1cccc(N=Nc2ccc3cccnc3c2O)c1	< 0.06 µM
Nc1[nH]n2c(=O)c3c(nc2c1N=Nc1ccc(Cl)cc1)CCCC3	6.13 µM
CCN1CCN(C(CNS(=O)(=O)c2ccc(C)cc2)c2cccnc2)CC1 (stereo not given)	> 15 µM (inactive)
O=[N+]([O-])c1c(NCCO)cc(Sc2nc3ccccc3s2)c2nonc12	2.95 µM
N[C@@H](C(=O)N[C@@H]1C(=O)N2C(C(=O)O)=C(Cl)CS[C@H]12)c1ccccc1	0.465 µM
CCc1cccc2sc(N3CCN(C(=O)c4ccc([N+](=O)[O-])o4)CC3)nc12	4.73 µM
CS(=O)(=O)c1ccc2nc(NC(=O)c3ccc(NS(=O)(=O)c4cccc([N+](=O)[O-])c4)cc3)sc2c1	1.64 µM
CCOc1ccc(Cl)cc1S(=O)(=O)n1cnc2cc(C)c(C)cc21	4.77 µM
COc1cnc(-c2ccccn2)nc1N(C)c1ccccc1	6.8 µM
CC(C)CCn1c(=O)c(C(=O)N/N=C/c2cccc(F)c2)c(O)c2ccccc21	1.17 µM
